Source: US12291516B2, “Substituted 1-amino-1H-imidazole-5-carboxamide as Bruton's tyrosine kinase inhibitors” (Henan Zhiwei Biomedicine Co., Ltd., priority 2019, dated 2025)
Like-named read-outs stand apart in the source and are kept apart here.

Tests used:
BTK [1] = molecular target: T1, BTK (Homo sapiens (Human), UniProt Q06187); experiment: BTK inhibition assay by Reaction Biology Corporation (33P-ATP, filter-binding); type: biochemical; conditions: footnote a: from Reaction Biology Corporation
Description: (§1) BTK inhibition Assay and selectivity Assay The assay was conducted either a by a third party (Reaction Biology Corporation, PA, USA) or in house.
a) Reagent and Procedure by Reaction Biology Corporation:
Base Reaction buffer; 20 mM Hepes (pH 7.5), 10 mM MgCl2, 1 mM EGTA, 0.02%. Brij35, 0.02 mg/ml BSA, 0.1 mM Na3VO4, 2 mM DTT, 1% DMSO. Required cofactors were added individually to each kinase reaction. Compound handling: testing compounds were dissolved in 100% DMSO to specific concentration. The serial dilution was conducted by Integra Viaflo Assist in DMSO.
The substrate was prepared in freshly prepared reaction buffer of above and required cofactors were added to the substrate solution. The kinase was delivered to the substrate solution and the mixture was gently mixed. Testing compounds in 100% DMSO was added to the kinase reaction mixture by Acoustic technology (Echo550; nanoliter range) and the new mixture was incubated for 20 min at room temperature. Then ^33P-ATP (Specific activity 10 μCi/μl) was added to the reaction mixture to initiate the reaction and the mixture was incubated for 2 hours at room temperature. The radioactivity was detected by filter-binding method and the kinase activity data was expressed as the percent of remaining kinase activity in test sample compared to vehicle (dimethyl sulfoxide) reaction. IC50 values and curve fits were obtained using Prism (GraphPad Software). The result is outlined in Table-I

BTK [2] = molecular target: T1, BTK; experiment: In house ELISA kinase inhibition assay, BTK; type: biochemical; conditions: footnote b: from in house procedure (ELISA)
Description: as §1
(§2) b) In House Procedure for BTK, BMX, EGFR and ITK:
(§3) Kinase inhibitory activities of compounds were evaluated using the Enzyme-linked immunosorbent assay (ELISA). The kinase enzyme of BTK, BMX, EGFR and ITK were purchased from Carna Bioscience (Kobe, Japan). A total of 10 ng/mL antiphosphotyrosine (PY713) antibody (abcam, Cambridge Science Park, UK) was precoated in 96-well ELISA plates. The kinase enzymes in each reaction well were set to BTK (101.25 ng/mL), BMX (90 ng/mL), EGFR (90 ng/mL) or ITK (120 ng/mL) and incubated with indicated drugs in 1× reaction buffer (50 mmol/L HEPES pH 7.4, 20 mmol/L MgCl2, 0.1 mmol/L MnCl2, 1 mmol/L DTT) containing 20 μmol/L (the final concentration of substrate in ITK reaction was 30 μmol/L) substrate (NH2-[…]-biotin) at 25° C. for 1 h. Then, a total of 3 μmol/L ATP was added and the reaction was continued for 2 h. The products of reaction were transferred into 96-well ELISA plates containing antibody and incubated at 25° C. for 30 min. After incubation, the wells were washed with PBS and then incubated with horseradish peroxidase (HRP)-conjugated streptavidin. The wells were visualized using 3,3′,5,5′-tetramethylbenzidine (TMB), and chromogenic reaction was ended with 2 mol/L H2SO4, the absorbance was read with a multimode plate reader (PerkinElmer, USA) at 450 nm. IC50 values and curve fits were obtained using Prism (GraphPad Software). (Table I-IV)

TMD-8 = experiment: In-vitro antitumor activity assay (CellTiter-Glo cell antiproliferative activity); type: cell-based; conditions: Homo sapiens, TMD8, TMD-8 cells, 72 h
Description: In-Vitro Antitumor Activity Assay
Method: Reagent and procedure by Hefei PreceDo pharmaceuticals Co. Ltd.
Cell antiproliferative activity was evaluated by the CellTiter-Glo (Promega, USA) assay. Make 1000× compounds solution in DMSO, add 1 μl 1000× compounds to […] growth medium to make 20× compounds. Dilute cell suspensions in growth medium to desired density and 95 μl were taken to 96-well plate. Add 5 μl 20× compounds into 96-well plate according to the plate map. Final DMSO concentration in each well was 0.1%. Then the cell was incubated at 37° C., 5% CO2 for 72 h. Equilibrate the assay plate to room temperature before measurement. Add 20 μl of CellTiter-Glo© Reagent into each well. Mix contents for 2 minutes on an orbital shaker to induce cell lysis. Incubate at room temperature for 10 minutes to stabilize luminescent signal. Record luminescence using EnVision Multilabel Reader (PerkinElmer). Cell viability (CV %) was calculated relative to vehicle (DMSO) treated control wells using following formula: Cell viability (%)=(RLU compound−RLU blank)/(RLU control−RLU blank)*100%. The IC50 values were calculated using GraphPad Prism 6.0 software, fitting to a 4-parameter equation to generate concentration response curves. All assays were conducted with three parallel samples and three repetitions.

EGFR = EGFR (Homo sapiens (Human), UniProt P00533); experiment: In house ELISA kinase inhibition assay, EGFR; type: biochemical; conditions: for IC50: in house ELISA; for Selectivity ratio: selectivity for BTK and EGFR
Description: as §1, §2, §3

ITK = ITK (Homo sapiens (Human), UniProt Q08881); experiment: In house ELISA kinase inhibition assay, ITK; type: biochemical; conditions: for IC50: in house ELISA; for Selectivity ratio: selectivity for BTK and ITK
Description: as §1, §2, §3

BMX = BMX (Homo sapiens (Human), UniProt P51813); experiment: In house ELISA kinase inhibition assay, BMX; type: biochemical; conditions: for IC50: in house ELISA; for Selectivity ratio: selectivity for BTK and BMX
Description: as §1, §2, §3

[3] = Rat pharmacokinetic assay; type: in vivo
Description: Rat Pharmacokinetic Assay
Method: Reagent and Procedure by Hefei PreceDo Pharmaceuticals Co. Ltd.
Male Sprague-Dawley rats with 6-8 weeks of age were purchased from Beijing Vital River Laboratory Animal Technology Co., Ltd. Rats were randomly assigned with three rats per group. A single dose of compound 84 or 85 was administered by tail vein injection in iv group. In po group, compound 84 or 85 was orally. Blood samples (˜0.25 mL) were obtained by orbital venous plexus at 2 min (iv only), 5 min, 15 min, 1 h, 2 h, 4 h, 6 h, 8 h, 12 h and 24 h (po only) post dose. After centrifuged at 4000 rpm for 10 min at 4° C., plasma was collected and stored at −20° C. until determine by LC-MS/MS.

[4] = male, Sprague-Dawley, plasma, iv 5 mg/kg
[5] = male, Sprague-Dawley, plasma, iv 1 mg/kg

EGFR, sequence (P00533 25-1210): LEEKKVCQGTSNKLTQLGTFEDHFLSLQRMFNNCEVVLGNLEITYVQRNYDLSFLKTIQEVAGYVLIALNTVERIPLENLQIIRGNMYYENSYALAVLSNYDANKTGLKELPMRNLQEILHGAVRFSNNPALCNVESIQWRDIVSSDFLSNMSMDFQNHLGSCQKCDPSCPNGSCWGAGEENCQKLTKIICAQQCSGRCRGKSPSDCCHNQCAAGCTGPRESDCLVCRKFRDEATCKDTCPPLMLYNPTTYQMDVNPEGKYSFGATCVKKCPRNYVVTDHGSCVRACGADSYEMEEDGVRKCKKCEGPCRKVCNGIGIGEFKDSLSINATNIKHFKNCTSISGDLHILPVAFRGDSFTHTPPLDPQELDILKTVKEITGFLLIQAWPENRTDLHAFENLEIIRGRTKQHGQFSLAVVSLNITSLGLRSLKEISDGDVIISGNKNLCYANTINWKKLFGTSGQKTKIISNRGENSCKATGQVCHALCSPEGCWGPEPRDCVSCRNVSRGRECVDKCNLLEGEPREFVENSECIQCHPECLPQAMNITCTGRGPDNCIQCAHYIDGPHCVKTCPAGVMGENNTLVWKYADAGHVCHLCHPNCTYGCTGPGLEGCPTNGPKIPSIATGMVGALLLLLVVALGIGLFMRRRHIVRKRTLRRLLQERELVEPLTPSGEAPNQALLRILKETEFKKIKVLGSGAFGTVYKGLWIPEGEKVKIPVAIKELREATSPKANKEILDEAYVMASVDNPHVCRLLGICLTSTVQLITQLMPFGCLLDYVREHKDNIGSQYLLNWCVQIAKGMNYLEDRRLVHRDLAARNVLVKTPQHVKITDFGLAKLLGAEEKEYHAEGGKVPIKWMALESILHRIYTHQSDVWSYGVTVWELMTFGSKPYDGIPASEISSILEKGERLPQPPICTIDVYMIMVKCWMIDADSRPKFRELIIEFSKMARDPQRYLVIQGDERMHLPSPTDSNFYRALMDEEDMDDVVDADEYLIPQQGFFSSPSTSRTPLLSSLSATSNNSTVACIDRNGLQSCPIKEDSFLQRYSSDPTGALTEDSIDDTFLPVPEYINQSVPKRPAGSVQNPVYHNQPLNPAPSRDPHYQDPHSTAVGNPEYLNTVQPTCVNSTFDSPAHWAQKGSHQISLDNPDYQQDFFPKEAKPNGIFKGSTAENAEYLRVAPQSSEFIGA
ITK, sequence (Q08881 whole entry): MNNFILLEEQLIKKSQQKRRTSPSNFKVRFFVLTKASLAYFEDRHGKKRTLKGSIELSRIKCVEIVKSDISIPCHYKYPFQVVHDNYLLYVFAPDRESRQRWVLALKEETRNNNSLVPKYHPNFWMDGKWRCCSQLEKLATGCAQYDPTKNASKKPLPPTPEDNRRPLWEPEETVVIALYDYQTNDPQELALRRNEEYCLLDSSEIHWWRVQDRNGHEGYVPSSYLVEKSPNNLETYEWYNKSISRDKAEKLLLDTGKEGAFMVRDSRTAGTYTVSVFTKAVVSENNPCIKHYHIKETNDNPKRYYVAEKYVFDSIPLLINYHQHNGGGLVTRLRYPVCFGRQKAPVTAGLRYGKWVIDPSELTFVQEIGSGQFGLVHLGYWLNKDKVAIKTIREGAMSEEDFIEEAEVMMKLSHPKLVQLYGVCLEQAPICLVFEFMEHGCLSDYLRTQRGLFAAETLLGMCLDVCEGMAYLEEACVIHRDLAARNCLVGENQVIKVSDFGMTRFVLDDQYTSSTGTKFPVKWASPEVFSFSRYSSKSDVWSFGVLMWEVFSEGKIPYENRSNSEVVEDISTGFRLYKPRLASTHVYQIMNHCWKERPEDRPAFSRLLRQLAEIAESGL
BMX, sequence (P51813 whole entry): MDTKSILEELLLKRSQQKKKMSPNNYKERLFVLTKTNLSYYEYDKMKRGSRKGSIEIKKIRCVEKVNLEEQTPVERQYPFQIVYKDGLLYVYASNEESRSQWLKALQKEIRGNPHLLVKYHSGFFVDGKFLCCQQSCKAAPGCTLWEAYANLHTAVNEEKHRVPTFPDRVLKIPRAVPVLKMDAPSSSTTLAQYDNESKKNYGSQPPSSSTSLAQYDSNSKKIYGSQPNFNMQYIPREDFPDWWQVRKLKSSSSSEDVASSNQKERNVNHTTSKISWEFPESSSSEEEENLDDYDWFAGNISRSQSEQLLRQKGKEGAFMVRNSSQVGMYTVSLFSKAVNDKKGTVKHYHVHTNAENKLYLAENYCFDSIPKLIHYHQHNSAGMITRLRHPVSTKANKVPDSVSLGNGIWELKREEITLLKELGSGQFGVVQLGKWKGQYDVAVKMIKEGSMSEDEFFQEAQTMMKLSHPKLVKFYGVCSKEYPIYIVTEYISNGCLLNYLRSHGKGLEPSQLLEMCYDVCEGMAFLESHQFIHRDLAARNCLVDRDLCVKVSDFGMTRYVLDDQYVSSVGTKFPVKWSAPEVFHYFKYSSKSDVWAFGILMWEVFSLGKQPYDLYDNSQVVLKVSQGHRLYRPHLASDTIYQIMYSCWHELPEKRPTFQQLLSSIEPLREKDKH
T1 sequence (Q06187 whole entry): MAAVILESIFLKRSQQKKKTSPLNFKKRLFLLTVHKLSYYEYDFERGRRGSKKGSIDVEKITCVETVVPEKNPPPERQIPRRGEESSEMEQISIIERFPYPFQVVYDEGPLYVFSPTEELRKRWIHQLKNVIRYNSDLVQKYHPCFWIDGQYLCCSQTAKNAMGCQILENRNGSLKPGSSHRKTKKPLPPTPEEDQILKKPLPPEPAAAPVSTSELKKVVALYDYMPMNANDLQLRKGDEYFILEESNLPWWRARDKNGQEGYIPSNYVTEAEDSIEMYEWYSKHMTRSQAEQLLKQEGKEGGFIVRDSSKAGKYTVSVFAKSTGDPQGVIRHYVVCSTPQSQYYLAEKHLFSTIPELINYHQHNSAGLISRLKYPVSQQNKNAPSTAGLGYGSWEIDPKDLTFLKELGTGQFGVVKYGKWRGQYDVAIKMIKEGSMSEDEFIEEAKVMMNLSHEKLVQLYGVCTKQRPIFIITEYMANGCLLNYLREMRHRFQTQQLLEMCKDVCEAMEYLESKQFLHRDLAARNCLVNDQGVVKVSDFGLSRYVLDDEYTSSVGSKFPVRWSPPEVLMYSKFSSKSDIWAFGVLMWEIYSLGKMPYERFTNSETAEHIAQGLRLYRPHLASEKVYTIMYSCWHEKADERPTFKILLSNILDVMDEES

Structure (SMILES) | IC50 (BTK [1]) | IC50 (BTK [2]) | IC50 (TMD-8) | IC50 (EGFR) | Selectivity ratio (EGFR) | IC50 (ITK) | Selectivity ratio (ITK) | IC50 (BMX) | Selectivity ratio (BMX) | further results
C=CC(=O)N1CCC[C@H]1c1nc(-c2ccc(C(=O)Nc3ccccn3)cc2)c(C(N)=O)n1N [Example 1, (S)-2-(1-acryloylpyrrolidin-2-yl)-1-amino-4-(4-(pyridin-2-yl-carbamoyl)phenyl)-1H-imidazole-5-carboxamide] | 131 nM | 176 nM | – | – | – | – | – | – | – | –
C#CC(=O)N1CCC[C@H]1c1nc(-c2ccc(C(=O)Nc3cc(C)ccn3)cc2)c(C(N)=O)n1N [Example 17, (S)-1-amino-4-(4-((4-methylpyridin-2-yl)carbamoyl)phenyl)-2-(1-propioloylpyrrolidin-2-yl)-1H-imidazole-5-carboxamide] | 24.4 nM | 30.3 nM | – | – | – | – | – | – | – | –
CC#CC(=O)N1CCC[C@H]1c1nc(-c2ccc(C(=O)Nc3cc(C)ccn3)cc2)c(C(N)=O)n1N [Example 18, (S)-1-amino-2-(1-(but-2-ynoyl)pyrrolidin-2-yl)-4-(4-((4-methylpyridin-2-yl)carbamoyl)phenyl)-1H-imidazole-5-carboxamide] | 7200 nM | 3080 nM | – | – | – | – | – | – | – | –
C#CC(=O)N1CCC[C@H]1c1nc(-c2ccc(C(=O)Nc3ccc(C)cn3)cc2)c(C(N)=O)n1N [Example 26, (S)-1-amino-4-(4-((5-methylpyridin-2-yl)carbamoyl)phenyl)-2-(1-propioloylpyrrolidin-2-yl)-1H-imidazole-5-carboxamide] | 12.5 nM | 18.4 nM | – | – | – | – | – | – | – | –
C=CC(=O)N1CCCC[C@H]1c1nc(-c2ccc(C(=O)Nc3ccccn3)cc2)c(C(N)=O)n1N [Example 46, (S)-2-(1-acryloylpiperidin-2-yl)-1-amino-4-(4-(pyridin-2-ylcarbamoyl)phenyl)-1H-imidazole-5-carboxamide] | 44.6 nM | 13.1 nM | – | – | – | – | – | – | – | –
C=CC(=O)N1CCCC[C@H]1c1nc(-c2ccc(C(=O)Nc3cc(C(C)C)ccn3)cc2)c(C(N)=O)n1N [Example 71, (S)-2-(1-acryloylpiperidin-2-yl)-1-amino-4-(4-((4-isopropylpyridin-2-yl)carbamoyl)phenyl)-1H-imidazole-5-carboxamide] | 55.1 nM | 22.6 nM | – | – | – | – | – | – | – | –
C=CC(=O)N1CCCC[C@H]1c1nc(-c2ccc(C(=O)Nc3cc(Cl)ccn3)cc2)c(C(N)=O)n1N [Example 72, (S)-2-(1-acryloylpiperidin-2-yl)-1-amino-4-(4-((4-chloropyridin-2-yl)carbamoyl)phenyl)-1H-imidazole-5-carboxamide] | 10.1 nM | 11.2 nM | 19 nM | – | – | – | – | – | – | –
C=CC(=O)N1CCCC[C@H]1c1nc(-c2ccc(C(=O)Nc3cc(C(F)(F)F)ccn3)cc2)c(C(N)=O)n1N [Example 84, (S)-2-(1-acryloylpiperidin-2-yl)-1-amino-4-(4-((4-(trifluoromethyl)pyridin-2-yl)carbamoyl)phenyl)-1H-imidazole-5-carboxamide] | – | 3.46 nM | 24.5 nM | 156 nM | 45 | 608 nM | 175.6 | 114 nM | 33.0 | CL ([3]; iv 5 mg/kg): 13.4 mL/min/kg; T1/2 ([3]; iv 5 mg/kg): 1.32 h; Vd ([3]; iv 5 mg/kg): 1.50 L/kg; clearance [3, 4]: 13.4 mL/min/kg; half-life [3, 4]: 1.32 h; AUC ([3]; male, Sprague-Dawley, plasma, po 5 mg/kg, read-out: AUC): 2000 ng·h/mL; Cmax ([3]; male, Sprague-Dawley, plasma, po 5 mg/kg, read-out: Cmax): 501 ng/mL; AUC ([3]; po 5 mg/kg): 1996 ng·h/mL; Cmax ([3]; po 5 mg/kg): 501 ng/mL; F ([3]; po 5 mg/kg): 32.4%; T1/2 ([3]; po 5 mg/kg): 1.35 h
CC#CC(=O)N1CCCC[C@H]1c1nc(-c2ccc(C(=O)Nc3cc(C(F)(F)F)ccn3)cc2)c(C(N)=O)n1N [Example 85, (S)-1-amino-2-(1-(but-2-ynoyl)piperidin-2-yl)-4-(4-((4-(trifluoromethyl)pyridin-2-yl)carbamoyl)phenyl)-1H-imidazole-5-carboxamide] | – | 7.29 nM | 54.3 nM | 11800 nM | 1619 | 30000 nM | 4115 | 789 nM | 108.2 | clearance [3, 5]: 50 mL/min/kg; half-life [3, 5]: 1.97 h; Vd ([3]; male, Sprague-Dawley, plasma, iv 1 mg/kg, read-out: Vd): 8.62 L/kg; half-life ([3]; male, Sprague-Dawley, plasma, po 10 mg/kg): 2.74 h; AUC ([3]; male, Sprague-Dawley, plasma, po 10 mg/kg, read-out: AUC): 3250 ng·h/mL; Cmax ([3]; male, Sprague-Dawley, plasma, po 10 mg/kg, read-out: Cmax): 723 ng/mL; AUC ([3]; po 10 mg/kg): 3247 ng·h/mL; F ([3]; po 10 mg/kg): 90.6%; T1/2 ([3]; po 10 mg/kg): 2.74 h
CC#CC(=O)N1CCCC[C@H]1c1nc(-c2ccc(C(=O)Nc3cc(I)ccn3)cc2)c(C(N)=O)n1N [Example 90, (S)-1-amino-2-(1-(but-2-ynoyl)piperidin-2-yl)-4-(4-((4-iodopyridin-2-yl)carbamoyl)phenyl)-1H-imidazole-5-carboxamide] | 10.7 nM | – | 35.1 nM | 4680 nM | 439 | 532 nM | 49.9 | 226 nM | 21.2 | –
CC#CC(=O)N1CCCC[C@H]1c1nc(-c2ccc(C(=O)Nc3cc(-c4ccc(F)cc4)ccn3)cc2)c(C(N)=O)n1N [Example 92, (S)-1-amino-2-(1-(but-2-ynoyl)piperidin-2-yl)-4-(4-((4-(4-fluorophenyl)pyridin-2-yl)carbamoyl)phenyl)-1H-imidazole-5-carboxamide] | 14.7 nM | – | 90.8 nM | 1090 nM | 74 | 33100 nM | 2255 | 154 nM | 10.5 | –
CC#CC(=O)N1CCCC[C@H]1c1nc(-c2ccc(C(=O)Nc3cc(Cl)ccn3)cc2)c(C(N)=O)n1N [Example 98, (S)-1-amino-2-(1-(but-2-ynoyl)piperidin-2-yl)-4-(4-((4-chloropyridin-2-yl)carbamoyl)phenyl)-1H-imidazole-5-carboxamide] | – | 19.4 nM | 37 nM | 3980 nM | 206 | 16500 nM | 850 | 1080 nM | 55.8 | –
